Reference: patent publication US9802899B2, “Heterocyclic compounds as pesticides” (BAYER CROPSCIENCE AG, priority 2012, dated 2017)

Test: Determination of the log P values by HPLC (formic acid method)
Assay type: physicochemical
Conditions: reversed-phase HPLC column (C 18), reversed-phase column (C 18), acidic range (pH 3.4), 55° C.
Protocol: 1) Description of Method for Determination of the Log P Values (Formic Acid Method)
Eluents for determination in the acidic range (pH 3.4):
Eluent A: acetonitrile+1 ml of formic acid/liter. Eluent B: water+0.9 ml of formic acid/liter.
The lambda max values were determined in the maxima of the chromatographic signals using the UV spectra from 200 nm to 400 nm.

SMILES | chromatographic logP
Nc1ccn(-c2cccc(Cl)c2Cl)n1 [1-(2,3-Dichlorophenyl)-1H-pyrazole-3-amine] | 1.97
Nc1ccn(-c2cccc(F)c2F)n1 [1-(2,3-Difluorophenyl)-1H-pyrazole-3-amine] | 1.56
Cc1nc(F)c(-n2ccc(N)n2)cc1F [1-(2,5-Difluoro-6-methylpyridin-3-yl)-1H-pyrazole-3-amine] | 1.5
Nc1ccn(-c2cc(F)ccc2F)n1 [1-(2,5-Difluorophenyl)-1H-pyrazole-3-amine] | 1.58
Nc1ccn(-c2cc(F)cnc2F)n1 [1-(2,5-difluoropyridin-3-yl)-1H-pyrazole-3-amine] | 1.15
Nc1ccn(-c2c(Cl)cccc2Cl)n1 [1-(2,6-Dichlorophenyl)-1H-pyrazole-3-amine] | 1.47
Cc1cccc(C)c1-n1ccc(N)n1 [1-(2,6-Dimethylphenyl)-1H-pyrazole-3-amine] | 0.62
Cc1ccc(-n2ccc(N)n2)c(Cl)c1 [1-(2-Chloro-4-methylphenyl)-1H-pyrazole-3-amine] | 1.85
CCOc1cccc(Cl)c1-n1ccc(N)n1 [1-(2-Chloro-6-ethoxyphenyl)-1H-pyrazole-3-amine] | 2.13
Nc1nn(-c2ccccc2Cl)c2ccccc12 [1-(2-Chlorophenyl)-1H-indazole-3-amine] | 2.32
Nc1ccn(-c2cccnc2Cl)n1 [1-(2-Chloropyridin-3-yl)-1H-pyrazole-3-amine] | 0.62
CCOc1cccc(F)c1-n1ccc(N)n1 [1-(2-Ethoxy-6-fluorophenyl)-1H-pyrazole-3-amine] | 1.47
CCOc1c(F)cccc1-n1ccc(N)n1 [1-(2-ethoxy-3-fluorophenyl)-1H-pyrazole-3-amine] | 2.04
Nc1ccn(-c2nc(F)c(F)cc2F)n1 [1-(3,5,6-Trifluoropyridin-2-yl)-1H-pyrazole-3-amine] | 1.15
Cc1nc(-n2ccc(N)n2)c(F)cc1F [1-(3,5-Difluoro-6-methylpyridin-2-yl)-1H-pyrazole-3-amine] | 1.25
Nc1nn(-c2ncc(F)cc2F)c2ccc(F)cc12 [1-(3,5-Difluoropyridin-2-yl)-5-fluoro-1H-indazole-3-amine] | 2.09
CCOc1c(Cl)cccc1-n1ccc(N)n1 [1-(3-Chloro-2-ethoxyphenyl)-1H-pyrazole-3-amine] | 2.13

SMILES | chromatographic logP
Nc1ccn(-c2cccc(Cl)c2F)n1 [1-(3-Chloro-2-fluorophenyl)-1H-pyrazole-3-amine] | 1.9
Nc1ccn(-c2ncc(F)cc2Cl)n1 [1-(3-Chloro-5-fluoropyridin-2-yl)-1H-pyrazole-3-amine] | 0.98
Nc1ccn(-c2nccc(I)c2F)n1 [1-(3-Fluoro-4-iodopyridin-2-yl)-1H-pyrazole-3-amine] | 1.38
Nc1ccn(-c2nccnc2F)n1 [1-(3-Fluoropyrazin-2-yl)-1H-pyrazole-3-amine] | 0.49
Nc1ccn(-c2ncnc(F)c2F)n1 [1-(5,6-Difluoropyrimidin-4-yl)-1H-pyrazole-3-amine] | 0.86
Nc1ccn(-c2ncc(Cl)cc2F)n1 [1-(5-Chloro-3-fluoropyridin-2-yl)-1H-pyrazole-3-amine] | 1.27
Nc1ccn(-c2cncc(F)n2)n1 [1-(6-Fluoropyrazin-2-yl)-1H-pyrazole-3-amine] | 0.9
Nc1cnn(-c2ncc(Cl)cc2Cl)n1 [2-(3,5-Dichloropyridin-2-yl)-2H-1,2,3-triazole-4-amine] | 1.38
Nc1cnn(-c2ncccc2F)n1 [2-(3-Fluoropyridin-2-yl)-2H-1,2,3-triazole-4-amine] | 0.4
Nc1cnn(-c2ncc(C(F)(F)F)cc2Cl)n1 [2-[3-Chloro-5-(trifluoromethyl)pyridin-2-yl]-2H-1,2,3-triazole-4-amine] | 1.74
Nc1cnn(-c2ccc(C(F)(F)F)cn2)n1 [2-[5-(Trifluoromethyl)pyridin-2-yl]-2H-1,2,3-triazole-4-amine] | 1.53
O=C(O)c1ccccc1C(=O)Nc1ccn(-c2c(F)cc([N+](=O)[O-])cc2F)n1 [2-{[1-(2,6-Difluoro-4-nitrophenyl)-1H-pyrazol-3-yl]carbamoyl}benzoic acid] | 1.85
N#Cc1cncnc1-n1ccc(N)n1 [4-(3-Amino-1H-pyrazol-1-yl)pyrimidine-5-carbonitrile] | 0.59
Nc1nn(-c2ccccc2Cl)cc1Br [4-Bromo-1-(2-chlorophenyl)-1H-pyrazole-3-amine] | 2.23
Nc1nn(-c2ccccc2Cl)cc1Cl [4-Chloro-1-(2-chlorophenyl)-1H-pyrazole-3-amine] | 2.14
Nc1nn(-c2ccccc2Cl)cc1I [4-Iodo-1-(2-chlorophenyl)-1H-pyrazole-3-amine] | 2.36
O=C(Nc1nn(-c2ccccc2Cl)cc1F)c1ccccc1Cl [Compound I-1-27, 2-Chloro-N-[1-(2-chlorophenyl)-4-fluoro-1H-pyrazol-3-yl]benzamide] | 2.7

Same assay, conditions: reversed-phase column (C 18), acidic range (pH 3.4), 55° C.

SMILES | chromatographic logP | log P
Nc1ccn(-c2c(F)cccc2F)n1 [1-(2,6-Difluorophenyl)-1H-pyrazole-3-amine] | 1.13 | –
Nc1ccn(-c2ncc(F)cc2F)n1 [1-(3,5-Difluoropyridin-2-yl)-1H-pyrazole-3-amine] | 0.81 | –
COc1ccccc1-n1ccc(NC(=O)c2ccccc2Br)n1 [Compound I-1-2] | – | 2.69
COc1ccccc1-n1ccc(NC(=O)c2cc(C)oc2C)n1 [Compound I-1-3] | – | 2.87
O=C(Nc1ccn(-c2ccccc2C(F)(F)F)n1)c1ccccc1Cl [Compound I-1-4] | – | 2.92
O=C(Nc1ccn(-c2ccccc2C(F)(F)F)n1)c1ccccc1C(F)(F)F [Compound I-1-6] | – | 2.75
O=C(Nc1ccn(-c2ccccc2C(F)(F)F)n1)c1ccnn1C(F)F [Compound I-1-7] | – | 3.05
N#Cc1ccccc1-n1ccc(NC(=O)c2ccccc2Cl)n1 [Compound I-1-8] | – | 2.38
N#Cc1ccccc1-n1ccc(NC(=O)c2ccccc2C(F)(F)F)n1 [Compound I-1-9] | – | 2.55
Cc1ccccc1C(=O)Nc1ccn(-c2ccccc2Cl)n1 [Compound I-1-11] | – | 2.86
CCc1ccccc1C(=O)Nc1ccn(-c2ccccc2Cl)n1 [Compound I-1-12] | – | 3.30
O=C(Nc1ccn(-c2ccccc2Cl)n1)c1ccccc1C(F)F [Compound I-1-13] | – | 3.03
O=C(Nc1ccn(-c2ccccc2Cl)n1)c1ccccc1C(F)(F)F [Compound I-1-14] | – | 2.96
O=C(Nc1ccn(-c2ccccc2Cl)n1)c1ccccc1F [Compound I-1-19] | – | 2.89
C#CCN(C(=O)c1ccccc1Cl)c1ccn(-c2ccccc2Cl)n1 [Compound I-1-23] | – | 3.25
O=C(c1ccccc1Cl)N(CC1CC1)c1ccn(-c2ccccc2Cl)n1 [Compound I-1-24] | – | 3.85
C=CCN(C(=O)c1ccccc1Cl)c1ccn(-c2ccccc2Cl)n1 [Compound I-1-26] | – | 3.56
O=C(Nc1nn(-c2ccccc2Cl)cc1Cl)c1ccccc1Cl [Compound I-1-28] | – | 2.88
O=C(Nc1nn(-c2ccccc2Cl)cc1I)c1ccccc1Cl [Compound I-1-30] | – | 3.01
Cc1cc(NC(=O)c2ccccc2Cl)nn1-c1ccccc1Cl [Compound I-1-31] | – | 2.45
O=C(Nc1ccn(-c2ccccc2Cl)n1)c1c(F)cccc1F [Compound I-1-36] | – | 2.65

SMILES | chromatographic logP | log P
Cc1cccnc1C(=O)Nc1ccn(-c2ccccc2Cl)n1 [Compound I-1-38] | – | 3.24
O=C(Nc1ccn(-c2ccccc2Cl)n1)c1ncccc1Cl [Compound I-1-40] | – | 2.79
Cc1ncccc1C(=O)Nc1ccn(-c2ccccc2Cl)n1 [Compound I-1-41] | – | 1.44
O=C(Nc1ccn(-c2ccccc2Cl)n1)c1cccnc1C(F)(F)F [Compound I-1-42] | – | 2.48
O=C(Nc1ccn(-c2ccccc2Cl)n1)c1nccnc1C(F)(F)F [Compound I-1-44] | – | 2.74
Cc1cc(C(=O)Nc2ccn(-c3ccccc3Cl)n2)c(C)o1 [Compound I-1-45] | – | 3.05
Cc1ccsc1C(=O)Nc1ccn(-c2ccccc2Cl)n1 [Compound I-1-46] | – | 2.96
O=C(Nc1ccn(-c2ccccc2Cl)n1)c1ccsc1I [Compound I-1-47] | – | 3.05
Cn1nc(C(F)F)c(C(=O)Nc2ccn(-c3ccccc3Cl)n2)c1F [Compound I-1-49] | – | 2.59
O=C(Nc1ccn(-c2ccccc2Br)n1)c1ccccc1C(F)(F)F [Compound I-1-50] | – | 3.07
O=C(Nc1ccn(-c2ccccc2Br)n1)c1ccccc1Br [Compound I-1-52] | – | 2.86
O=C(Nc1ccn(-c2ccccc2Br)n1)c1ncccc1C(F)(F)F [Compound I-1-54] | – | 2.99
O=C(Nc1ccn(-c2ccccc2Br)n1)c1cccnc1C(F)(F)F [Compound I-1-56] | – | 2.54
O=C(Nc1ccn(-c2ccccc2Br)n1)c1cccnc1Cl [Compound I-1-57] | – | 2.37
Cn1nc(C(F)F)c(C(=O)Nc2ccn(-c3ccccc3Br)n2)c1F [Compound I-1-58] | – | 2.63
Cn1nc(C(F)(F)F)c(C(=O)Nc2ccn(-c3ccccc3Br)n2)c1F [Compound I-1-59] | – | 3.00
Cc1ccsc1C(=O)Nc1ccn(-c2ccccc2Br)n1 [Compound I-1-60] | – | 3.16
O=C(Nc1ccn(-c2cccc(F)c2F)n1)c1ccccc1C(F)(F)F [Compound I-1-62] | – | 3.07
O=C(Nc1ccn(-c2cccc(F)c2F)n1)c1ccccc1C(F)(F)F [Compound I-1-64] | – | 3.02
O=C(Nc1ccn(-c2cccc(F)c2F)n1)c1ccccc1C(F)(F)F [Compound I-1-65] | – | 3.13
